{
  "source": "ChEMBL document CHEMBL5034001",
  "about": "(J Med Chem, 2021)",
  "key": {"SR [1]": {"test_system": "SR", "assay": "Antiproliferative activity against human SR cells assessed as inhibition of cell growth incubated for 72 hrs by CCK8 assay", "assay_type": "functional, cell-based"}, "SR [2]": {"test_system": "SR", "assay": "Antiproliferative activity against human SR cells assessed as inhibition of cell growth at 10 nM preincubated for 5 days followed by compound washout and measured on day 7 and 9 by CCK8 assay", "assay_type": "functional, cell-based", "conditions": "time 5.0 day"}, "[3]": {"molecular_target": "Signal transducer and activator of transcription 3 (Homo sapiens) (UniProt P40763)", "sequence (P40763 whole entry)": "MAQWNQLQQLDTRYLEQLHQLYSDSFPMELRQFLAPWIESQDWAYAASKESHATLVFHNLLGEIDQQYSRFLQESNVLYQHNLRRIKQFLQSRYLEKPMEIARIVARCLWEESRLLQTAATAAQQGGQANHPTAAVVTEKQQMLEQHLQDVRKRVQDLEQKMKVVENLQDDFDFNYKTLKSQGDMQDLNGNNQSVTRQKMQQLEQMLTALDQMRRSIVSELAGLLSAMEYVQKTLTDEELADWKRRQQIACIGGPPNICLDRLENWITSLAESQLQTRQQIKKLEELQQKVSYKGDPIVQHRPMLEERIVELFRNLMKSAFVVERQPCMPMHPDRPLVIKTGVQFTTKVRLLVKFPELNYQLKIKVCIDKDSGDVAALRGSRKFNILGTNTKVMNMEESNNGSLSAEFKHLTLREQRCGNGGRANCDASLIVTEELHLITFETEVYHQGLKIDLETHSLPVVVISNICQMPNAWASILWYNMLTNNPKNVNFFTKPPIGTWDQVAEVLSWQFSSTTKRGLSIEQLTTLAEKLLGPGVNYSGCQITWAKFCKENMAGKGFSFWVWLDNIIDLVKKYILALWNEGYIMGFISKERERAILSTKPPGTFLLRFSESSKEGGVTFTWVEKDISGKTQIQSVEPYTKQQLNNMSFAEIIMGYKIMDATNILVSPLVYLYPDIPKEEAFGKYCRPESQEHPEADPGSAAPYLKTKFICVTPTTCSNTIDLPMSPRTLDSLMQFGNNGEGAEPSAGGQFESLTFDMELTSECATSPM", "assay": "Inhibition of STAT3 downstream signalling in human SR cells assessed as reduction in pSTAT3 level at 10 nM by Western blot analysis", "assay_type": "cell-based"}, "[4]": {"molecular_target": "Signal transducer and activator of transcription 3 (Homo sapiens) (UniProt P40763)", "assay": "Inhibition of STAT3 downstream signalling in human NCI-H2228 cells assessed as reduction in pSTAT3 level at 1 to 1000 nM by Western blot analysis", "assay_type": "cell-based", "conditions": "dose 1-1000 nM"}, "HEK-293T": {"test_system": "HEK-293T", "assay": "Antiproliferative activity against human 293T cells overexpressing ALK G1202R mutant assessed as cell growth inhibition after 72 hrs", "assay_type": "functional, cell-based"}, "SR [5]": {"test_system": "SR", "assay": "Induction of G1 cell cycle arrest in human SR cells at 100 nM after 24 to 48 hrs", "assay_type": "functional, cell-based", "conditions": "time 24-48 hrs"}, "Calu-1 [6]": {"test_system": "Calu-1", "assay": "Induction of G1 cell cycle arrest in human Calu-1 cells at 100 nM after 24 to 48 hrs", "assay_type": "functional, cell-based", "conditions": "time 24-48 hrs"}, "MDA-MB-231 [7]": {"test_system": "MDA-MB-231", "assay": "Induction of G1 cell cycle arrest in human MDA-MB-231 cells at 100 nM after 24 to 48 hrs", "assay_type": "functional, cell-based", "conditions": "time 24-48 hrs"}, "Calu-1 [8]": {"test_system": "Calu-1", "assay": "Induction of apoptosis in human Calu-1 cells at 100 nM after 72 hrs", "assay_type": "functional, cell-based"}, "MDA-MB-231 [9]": {"test_system": "MDA-MB-231", "assay": "Induction of apoptosis in human MDA-MB-231 cells at 100 nM after 72 hrs", "assay_type": "functional, cell-based"}, "Calu-1 [10]": {"test_system": "Calu-1", "assay": "Inhibition of cell migration in human Calu-1 cells at 100 nM after 12 to 24 hrs by wound healing assay", "assay_type": "functional, cell-based", "conditions": "time lower […], time upper 24.0 hrs"}, "MDA-MB-231 [11]": {"test_system": "MDA-MB-231", "assay": "Inhibition of cell migration in human MDA-MB-231 cells at 100 nM after 48 hrs by wound healing assay", "assay_type": "functional, cell-based"}, "MDA-MB-231 [12]": {"test_system": "MDA-MB-231", "assay": "Inhibition of cell migration in human MDA-MB-231 cells assessed as wound confluence ratio at 500 nM after 48 hrs by wound healing assay", "assay_type": "functional"}, "[13]": {"molecular_target": "T1, ALK tyrosine kinase receptor (Homo sapiens, UniProt Q9UM73)", "T1 sequence (Q9UM73 19-1620 limits assumed)": "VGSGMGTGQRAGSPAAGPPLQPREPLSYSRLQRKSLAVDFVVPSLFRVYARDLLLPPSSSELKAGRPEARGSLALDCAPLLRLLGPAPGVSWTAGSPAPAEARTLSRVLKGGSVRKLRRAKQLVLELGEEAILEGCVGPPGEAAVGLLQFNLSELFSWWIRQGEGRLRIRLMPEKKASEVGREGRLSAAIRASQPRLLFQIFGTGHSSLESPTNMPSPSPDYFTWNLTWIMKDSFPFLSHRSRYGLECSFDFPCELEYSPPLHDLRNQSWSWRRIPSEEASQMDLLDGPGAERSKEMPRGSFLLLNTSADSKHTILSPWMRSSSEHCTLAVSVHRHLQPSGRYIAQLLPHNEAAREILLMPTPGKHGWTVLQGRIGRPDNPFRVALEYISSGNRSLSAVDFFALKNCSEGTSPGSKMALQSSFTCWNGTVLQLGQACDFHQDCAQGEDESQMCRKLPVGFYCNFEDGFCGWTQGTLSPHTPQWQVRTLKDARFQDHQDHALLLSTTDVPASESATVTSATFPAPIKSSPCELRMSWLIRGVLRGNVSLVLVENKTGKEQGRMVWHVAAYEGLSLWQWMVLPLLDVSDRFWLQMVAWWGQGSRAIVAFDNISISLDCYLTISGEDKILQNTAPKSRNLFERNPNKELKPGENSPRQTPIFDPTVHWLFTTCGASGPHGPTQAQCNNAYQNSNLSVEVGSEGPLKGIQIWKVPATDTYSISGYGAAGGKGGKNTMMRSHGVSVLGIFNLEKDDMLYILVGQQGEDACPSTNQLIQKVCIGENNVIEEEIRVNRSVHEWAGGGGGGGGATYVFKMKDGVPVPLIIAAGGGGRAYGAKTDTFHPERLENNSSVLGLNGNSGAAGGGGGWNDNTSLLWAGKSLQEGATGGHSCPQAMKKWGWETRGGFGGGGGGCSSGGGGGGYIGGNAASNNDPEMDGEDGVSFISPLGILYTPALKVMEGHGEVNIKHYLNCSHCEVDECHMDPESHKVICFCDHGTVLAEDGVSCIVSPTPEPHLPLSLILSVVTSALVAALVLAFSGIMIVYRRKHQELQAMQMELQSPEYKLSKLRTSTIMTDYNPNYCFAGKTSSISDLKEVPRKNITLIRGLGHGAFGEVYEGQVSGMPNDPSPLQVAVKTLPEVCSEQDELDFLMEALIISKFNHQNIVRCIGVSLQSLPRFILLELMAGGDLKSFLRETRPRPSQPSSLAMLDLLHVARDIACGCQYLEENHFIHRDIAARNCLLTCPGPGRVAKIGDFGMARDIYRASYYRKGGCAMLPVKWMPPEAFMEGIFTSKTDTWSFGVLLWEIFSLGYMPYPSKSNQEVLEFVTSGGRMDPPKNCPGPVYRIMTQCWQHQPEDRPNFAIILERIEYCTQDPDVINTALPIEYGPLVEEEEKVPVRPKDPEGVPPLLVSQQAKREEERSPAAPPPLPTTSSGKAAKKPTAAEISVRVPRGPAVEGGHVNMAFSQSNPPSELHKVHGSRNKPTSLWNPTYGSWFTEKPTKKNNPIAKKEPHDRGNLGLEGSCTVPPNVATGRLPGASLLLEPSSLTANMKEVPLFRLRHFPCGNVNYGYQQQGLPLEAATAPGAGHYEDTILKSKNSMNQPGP", "assay": "Induction of ALK degradation in human SR cells at 500 nM after 16 hrs by Western blot analysis", "assay_type": "cell-based"}, "[14]": {"molecular_target": "T1, ALK tyrosine kinase receptor", "assay": "Induction of ALK degradation in human SR cells assessed as protein stability at 50 ug/ml after 24 hrs", "assay_type": "cell-based", "conditions": "dose 50.0 µg/ml"}, "[15]": {"molecular_target": "Focal adhesion kinase 1 (Homo sapiens) (UniProt Q05397)", "sequence (Q05397 2-1052 limits assumed)": "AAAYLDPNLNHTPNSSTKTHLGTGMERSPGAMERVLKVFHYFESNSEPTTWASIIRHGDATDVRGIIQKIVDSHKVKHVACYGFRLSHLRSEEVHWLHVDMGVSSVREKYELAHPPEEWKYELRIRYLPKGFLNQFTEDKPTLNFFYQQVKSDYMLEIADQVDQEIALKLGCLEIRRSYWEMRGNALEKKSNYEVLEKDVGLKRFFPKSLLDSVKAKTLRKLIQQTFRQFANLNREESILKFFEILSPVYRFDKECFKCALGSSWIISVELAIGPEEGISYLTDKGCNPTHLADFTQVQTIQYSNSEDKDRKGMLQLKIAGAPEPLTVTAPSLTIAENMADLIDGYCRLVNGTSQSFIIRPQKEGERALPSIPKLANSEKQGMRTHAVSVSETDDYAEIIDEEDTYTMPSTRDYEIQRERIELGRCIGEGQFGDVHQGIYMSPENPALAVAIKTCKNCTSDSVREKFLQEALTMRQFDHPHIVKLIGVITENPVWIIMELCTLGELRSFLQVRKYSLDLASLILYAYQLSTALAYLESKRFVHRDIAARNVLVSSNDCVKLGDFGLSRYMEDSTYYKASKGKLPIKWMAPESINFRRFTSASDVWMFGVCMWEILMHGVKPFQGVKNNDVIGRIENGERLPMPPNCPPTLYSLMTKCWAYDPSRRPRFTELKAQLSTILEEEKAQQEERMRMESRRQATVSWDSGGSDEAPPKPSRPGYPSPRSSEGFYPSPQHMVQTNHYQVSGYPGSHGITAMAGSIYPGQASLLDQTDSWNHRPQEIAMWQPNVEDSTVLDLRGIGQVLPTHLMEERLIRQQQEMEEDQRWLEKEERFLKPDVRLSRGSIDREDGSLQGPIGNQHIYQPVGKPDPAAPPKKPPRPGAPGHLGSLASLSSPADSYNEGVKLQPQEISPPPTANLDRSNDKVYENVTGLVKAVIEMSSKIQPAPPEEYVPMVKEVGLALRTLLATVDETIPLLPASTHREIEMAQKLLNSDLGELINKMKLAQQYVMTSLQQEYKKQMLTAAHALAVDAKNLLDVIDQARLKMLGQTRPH", "assay": "Induction of FAK degradation in human MDA-MB-231 cells assessed as protein stability at 50 ug/ml after 8 hrs", "assay_type": "cell-based", "conditions": "dose 50.0 µg/ml"}, "[16]": {"molecular_target": "Protein-tyrosine kinase 2-beta (Homo sapiens) (UniProt Q14289)", "sequence (Q14289 whole entry, looked up)": "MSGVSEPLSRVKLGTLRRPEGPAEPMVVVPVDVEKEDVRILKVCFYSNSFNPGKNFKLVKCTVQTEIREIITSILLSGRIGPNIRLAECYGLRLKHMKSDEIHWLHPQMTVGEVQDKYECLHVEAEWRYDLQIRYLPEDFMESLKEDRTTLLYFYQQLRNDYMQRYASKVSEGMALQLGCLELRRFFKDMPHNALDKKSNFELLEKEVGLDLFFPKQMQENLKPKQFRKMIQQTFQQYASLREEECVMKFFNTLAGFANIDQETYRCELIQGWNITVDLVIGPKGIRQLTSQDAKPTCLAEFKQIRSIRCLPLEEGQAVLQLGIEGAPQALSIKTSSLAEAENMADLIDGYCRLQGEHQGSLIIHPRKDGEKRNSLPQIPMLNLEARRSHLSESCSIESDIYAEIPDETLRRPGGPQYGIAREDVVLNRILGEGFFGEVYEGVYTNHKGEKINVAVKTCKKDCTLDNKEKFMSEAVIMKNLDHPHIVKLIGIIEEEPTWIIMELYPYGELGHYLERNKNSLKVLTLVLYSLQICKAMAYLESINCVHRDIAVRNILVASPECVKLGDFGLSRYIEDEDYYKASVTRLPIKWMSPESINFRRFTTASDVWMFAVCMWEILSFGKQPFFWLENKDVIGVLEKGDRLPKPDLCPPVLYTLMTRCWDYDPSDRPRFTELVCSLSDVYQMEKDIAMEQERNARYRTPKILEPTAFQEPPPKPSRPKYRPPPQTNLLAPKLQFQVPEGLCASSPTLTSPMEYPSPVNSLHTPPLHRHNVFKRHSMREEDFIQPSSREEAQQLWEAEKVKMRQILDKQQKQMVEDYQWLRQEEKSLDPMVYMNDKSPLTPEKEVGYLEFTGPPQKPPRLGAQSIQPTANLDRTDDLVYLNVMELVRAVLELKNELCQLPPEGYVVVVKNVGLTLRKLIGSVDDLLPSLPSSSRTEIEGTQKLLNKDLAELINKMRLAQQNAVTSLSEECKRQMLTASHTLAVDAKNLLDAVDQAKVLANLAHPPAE", "assay": "Induction of PYK2 degradation in human MDA-MB-231 cells assessed as protein stability at 50 ug/ml after 8 hrs", "assay_type": "cell-based", "conditions": "dose 50.0 µg/ml"}},
  "note": "Activity calls are given as the source filed them. The calls are words filed in the database; no cut-off is given here.",
  "data": [
    {"smiles": "COc1cc(N2CCC(N3CCN(C(=O)CCNc4cccc5c4C(=O)N(C4CCC(=O)NC4=O)C5=O)CC3)CC2)ccc1Nc1ncc(Cl)c(Nc2ccccc2P(C)(C)=O)n1", "note": "(stereo not drawn)", "values": [
      {"measurement": "IC50", "setting": "SR [1]", "value": 9.6, "unit": "nM"}
    ]},
    {"smiles": "COc1cc(N2CCC(N3CCN(C(=O)CCCCCNc4cccc5c4C(=O)N(C4CCC(=O)NC4=O)C5=O)CC3)CC2)ccc1Nc1ncc(Cl)c(Nc2ccccc2P(C)(C)=O)n1", "note": "(stereo not drawn)", "values": [
      {"measurement": "IC50", "setting": "SR [1]", "value": 3.3, "unit": "nM"}
    ]},
    {"smiles": "COc1cc(N2CCC(N3CCN(C(=O)CCCCCCNc4cccc5c4C(=O)N(C4CCC(=O)NC4=O)C5=O)CC3)CC2)ccc1Nc1ncc(Cl)c(Nc2ccccc2P(C)(C)=O)n1", "note": "(stereo not drawn)", "values": [
      {"measurement": "IC50", "setting": "SR [1]", "value": 4.8, "unit": "nM"}
    ]},
    {"smiles": "COc1cc(N2CCC(N3CCN(C)CC3)CC2)ccc1Nc1ncc(Cl)c(Nc2ccccc2P(C)(C)=O)n1", "note": "[BRIGATINIB]", "values": [
      {"measurement": "IC50", "setting": "SR [1]", "value": 3.3, "unit": "nM"},
      {"measurement": "Activity", "setting": "SR [2]", "value": "inactive"},
      {"measurement": "inhibition", "setting": "[3]", "value": "Active"},
      {"measurement": "inhibition", "setting": "[4]", "value": "inactive"},
      {"measurement": "IC50", "setting": "HEK-293T", "value": 850, "unit": "nM"},
      {"measurement": "Activity", "setting": "SR [5]", "value": "Active"},
      {"measurement": "Activity", "setting": "Calu-1 [6]", "value": "inactive"},
      {"measurement": "Activity", "setting": "MDA-MB-231 [7]", "value": "inactive"},
      {"measurement": "Activity", "setting": "Calu-1 [8]", "value": "inactive"},
      {"measurement": "Activity", "setting": "MDA-MB-231 [9]", "value": "inactive"},
      {"measurement": "inhibition", "setting": "Calu-1 [10]", "value": "inactive"},
      {"measurement": "inhibition", "setting": "MDA-MB-231 [11]", "value": "inactive"},
      {"measurement": "inhibition at 0.5 µM", "setting": "MDA-MB-231 [12]", "value": 56, "unit": "%"}
    ]},
    {"smiles": "COc1cc(N2CCC(N3CCN(C(=O)CCCCNc4cccc5c4C(=O)N(C4CCC(=O)NC4=O)C5=O)CC3)CC2)ccc1Nc1ncc(Cl)c(Nc2ccccc2P(C)(C)=O)n1", "note": "(stereo not drawn)", "values": [
      {"measurement": "IC50", "setting": "SR [1]", "value": 7.4, "unit": "nM"}
    ]},
    {"smiles": "COc1cc(N2CCC(N3CCN(C(=O)CCOCCNc4cccc5c4C(=O)N(C4CCC(=O)NC4=O)C5=O)CC3)CC2)ccc1Nc1ncc(Cl)c(Nc2ccccc2P(C)(C)=O)n1", "note": "(stereo not drawn)", "values": [
      {"measurement": "IC50", "setting": "SR [1]", "value": 3.8, "unit": "nM"}
    ]},
    {"smiles": "COc1cc(N2CCC(N3CCN(C(=O)CCOCCOCCOCCOCCOCCNc4cccc5c4C(=O)N(C4CCC(=O)NC4=O)C5=O)CC3)CC2)ccc1Nc1ncc(Cl)c(Nc2ccccc2P(C)(C)=O)n1", "note": "(stereo not drawn)", "values": [
      {"measurement": "IC50", "setting": "SR [1]", "value": 14, "unit": "nM"}
    ]},
    {"smiles": "COc1cc(N2CCC(N3CCN(C(=O)CCOCCOCCOCCOCCNc4cccc5c4C(=O)N(C4CCC(=O)NC4=O)C5=O)CC3)CC2)ccc1Nc1ncc(Cl)c(Nc2ccccc2P(C)(C)=O)n1", "note": "(stereo not drawn)", "values": [
      {"measurement": "IC50", "setting": "SR [1]", "value": 11.2, "unit": "nM"}
    ]},
    {"smiles": "COc1cc(N2CCC(N3CCN(C(=O)CNc4cccc5c4C(=O)N(C4CCC(=O)N(C)C4=O)C5=O)CC3)CC2)ccc1Nc1ncc(Cl)c(Nc2ccccc2P(C)(C)=O)n1", "note": "(stereo not drawn)", "values": [
      {"measurement": "IC50", "setting": "SR [1]", "value": 16.3, "unit": "nM"},
      {"measurement": "Activity", "setting": "[13]", "value": "Active"}
    ]},
    {"smiles": "COc1cc(N2CCC(N3CCN(C(=O)CCOCCOCCNc4cccc5c4C(=O)N(C4CCC(=O)NC4=O)C5=O)CC3)CC2)ccc1Nc1ncc(Cl)c(Nc2ccccc2P(C)(C)=O)n1", "note": "(stereo not drawn)", "values": [
      {"measurement": "IC50", "setting": "SR [1]", "value": 3.6, "unit": "nM"}
    ]},
    {"smiles": "COc1cc(N2CCC(N3CCN(C(=O)CCOCCOCCOCCNc4cccc5c4C(=O)N(C4CCC(=O)NC4=O)C5=O)CC3)CC2)ccc1Nc1ncc(Cl)c(Nc2ccccc2P(C)(C)=O)n1", "note": "(stereo not drawn)", "values": [
      {"measurement": "IC50", "setting": "SR [1]", "value": 5.3, "unit": "nM"}
    ]},
    {"smiles": "COc1cc(N2CCC(N3CCN(C(=O)CCCNc4cccc5c4C(=O)N(C4CCC(=O)NC4=O)C5=O)CC3)CC2)ccc1Nc1ncc(Cl)c(Nc2ccccc2P(C)(C)=O)n1", "note": "(stereo not drawn)", "values": [
      {"measurement": "IC50", "setting": "SR [1]", "value": 2.9, "unit": "nM"}
    ]},
    {"smiles": "C[C@@H]1C[C@@H]([C@H](O)CC2CC(=O)NC(=O)C2)C(=O)[C@@H](C)C1", "values": [
      {"measurement": "Activity", "setting": "[14]", "value": "Active"},
      {"measurement": "Activity", "setting": "[15]", "value": "Active"},
      {"measurement": "Activity", "setting": "[16]", "value": "Active"}
    ]}
  ]
}
